Data taken from publication PMC7445428, “Simplified dolutegravir dosing for children with HIV weighing 20 kg or more: pharmacokinetic and safety substudies of the multicentre, randomised ODYSSEY trial” (The Lancet. HIV, 2020).
Like-named read-outs stand apart in the source and are kept apart here. Marks after values point to notes of the source that are not given here.

Legend:
[1] = Safety follow-up (serious, grade 3 or 4 adverse events) over 24 weeks in children of the pharmacokinetic substudies; format: in vivo, human
Method: Children enrolled in the pharmacokinetic substudies attended study visits following the main ODYSSEY trial protocol (visits every 12 weeks after week 4 from enrolment). Participants whose dose was increased to 30 mg dispersible tablets or the 50 mg film-coated tablet had additional safety visits at weeks 2, 4, and 12 after dose adaptation. At each visit, we did a clinical assessment, including haematology and biochemistry safety parameters. We ascertained serious adverse events (defined according to International Conference on Harmonisation Guideline for Good Clinical Practice), grade 3 and 4 clinical and laboratory events, and events resulting in modification of ART (any grade).
All children consenting to inclusion in a pharmacokinetic substudy contributed safety data from the start of each pharmacokinetic dose for 24 weeks or to last follow-up visit, whichever was earlier; no participant commenced a second pharmacokinetic dose before completing 24 weeks on the first pharmacokinetic dose with the exception of children weighing 25 kg to less than 40 kg crossing over from the doses approved by the SRAs at the time of the study the 50 mg film-coated tablet, with which follow-up could be shorter. As part of the ODYSSEY trial, an independent endpoint review committee who were masked to trial groups (third drug of ART regimen) reviewed all reported adverse events. We did descriptive analysis reporting follow-up and adverse events by dose and weight band in STATA (version 15.0). An independent data monitoring committee reviewed conduct, pharmacokinetic, and safety data from these substudies. The ODYSSEY trial is registered with ClinicalTrials.gov, NCT02259127.

[2] = parameters: method as in earlier work; conditions: cited from earlier work
[3] = parameters: method as in PMID 22183173; conditions: adult healthy volunteers, cited from earlier work
[4] = parameters: species or system human
Method: The pharmacokinetic substudy for children weighing 25 kg to less than 40 kg was a within-subject, two-period, fixed-order, pharmacokinetic study with paediatric dolutegravir doses approved by the SRAs at the time of the study used in the first period and a higher (adult) dose of 50 mg as film-coated tablet in the second period. A child first completed 24-h intensive pharmacokinetic sampling after at least 1 week of receiving 25 mg film-coated tablets if they were in the 25 kg to less than 30 kg weight band or 35 mg (one 10 mg and one 25 mg film-coated tablet) if they were in the 30 to less than 40 kg weight band. The second 24-h pharmacokinetic profile was taken at least 1 week after the switch to a daily 50 mg film-coated tablet.
In a parallel pharmacokinetic substudy, children weighing 20 kg to less than 25 kg had 24-h intensive pharmacokinetic profiling on the once-daily dose of dolutegravir 25 mg film-coated tablet (part one). After review of the results, we did a subsequent substudy (part two) in children weighing 20 to less than 25 kg, investigating higher dolutegravir doses to achieve better exposures. On the basis of results of part one and to simplify dosing and future access to formulations, we studied the 50 mg adult film-coated tablet. Because we were concurrently investigating dispersible dolutegravir tablets in children weighing less than 20 kg (not reported here), we also studied a 30 mg dose given as six 5 mg dispersible tablets, which is bioequivalent to a 50 mg film-coated tablet,[16] as an option for children unable to swallow adult tablets. Dolutegravir 50 mg film-coated tablet or 30 mg dispersible tablet formulations were allocated by site. This substudy primarily enrolled children who had not participated in part one because children initially recruited in this weight band had gained weight and were no longer in the weight band.
To achieve steady-state, children attended their pharmacokinetic study visit day at least 7 days after starting on the investigated dolutegravir dose. We ascertained medication adherence during the last 3 days before the day of pharmacokinetic assessment to ensure that no doses had been missed. To construct a dolutegravir plasma concentration-time profile, blood samples of 2 mL were taken at baseline and 1, 2, 3, 4, 6, and 24 h after observed dolutegravir intake with 100 mL of water. To conform with adult comparator studies, participants fasted at least 3 h before dolutegravir intake, although an overnight fast was preferred. Dispersible tablets were dispersed in a small amount of water and immediately taken, followed by an additional intake of water up to a volume of 100 mL. We allowed no medications, other than nucleoside reverse transcriptase inhibitors, within 2 h after dolutegravir intake. Children fasted 2 h after dolutegravir intake before having a light breakfast (containing approximately 250 calories). During pharmacokinetic assessment days all food was provided at set times.
We refrigerated blood samples within 10 min and centrifuged them within 24 h of collection. Plasma was separated and stored at −80°C until shipping to the laboratory of the Department of Pharmacy, Radboudumc, Nijmegen, Netherlands for quantification with a validated liquid chromatography tandem mass spectrometry bioanalytical quantification method (lower limit of quantification of 0·01 mg/L).[18]
We included all participants consenting to inclusion in the pharmacokinetic substudies in the safety analyses. For the pharmacokinetic analyses, we considered haemolysed samples non-evaluable and excluded pharmacokinetic profiles if treatment non-adherence was likely (predefined when a predose concentration [C0] was >15 times below the concentration 24 h after observed drug intake (trough concentration [Ctrough]), if protocol violations had occurred, or if concomitant medications known to affect dolutegravir drug concentrations had been used. […]

[5] = test system: plasma HIV-1 RNA; parameters: method as in PMID 22018760; conditions: adults, 96 weeks, cited from earlier work
[6] = 20 to <25 kg, 9 patients (50 mg) FCT
[7] = 20 to <25 kg, 10 patients (30 mg) DT
[8] = 20 to <25 kg, 17 patients (25 mg) FCT
[9] = 25 to <30 kg, 17 patients (25 mg) FCT
[10] = 25 to <30 kg, 17 patients (50 mg) FCT
[11] = 30 to <40 kg, 11 patients (35 mg) FCT
[12] = 30 to <40 kg, 11 patients (50 mg) FCT

C[C@@H]1CCO[C@H]2Cn3cc(C(=O)NCc4ccc(F)cc4F)c(=O)c(O)c3C(=O)N12 [dolutegravir]
Total adverse events (grade 3 or 4 or serious adverse event) ([1]; 17 patients (25 mg) FCT): 3 (18%) n (%)
Anaemia (grade 3 or 4 asymptomatic laboratory event) [1, 6]: 0 n (%)
Cryptococcal meningitis (grade 3 or 4 clinical adverse event) [1, 6]: 0 n (%)
Grade 3 or 4 asymptomatic laboratory events [1, 6]: 0 n (%)
Grade 3 or 4 clinical adverse events [1, 6]: 0 n (%)
Neutropenia (grade 3 or 4 asymptomatic laboratory event) [1, 6]: 0 n (%)
Thrombocytopenia and raised transaminases (grade 3 or 4 asymptomatic laboratory event) [1, 6]: 0 n (%)
Anaemia (grade 3 or 4 asymptomatic laboratory event) [1, 7]: 0 n (%)
Cryptococcal meningitis (grade 3 or 4 clinical adverse event) [1, 7]: 0 n (%)
Grade 3 or 4 asymptomatic laboratory events [1, 7]: 0 n (%)
Grade 3 or 4 clinical adverse events [1, 7]: 0 n (%)
Neutropenia (grade 3 or 4 asymptomatic laboratory event) [1, 7]: 0 n (%)
Thrombocytopenia and raised transaminases (grade 3 or 4 asymptomatic laboratory event) [1, 7]: 0 n (%)
Anaemia (grade 3 or 4 asymptomatic laboratory event) [1, 8]: 0 n (%)
Cryptococcal meningitis (grade 3 or 4 clinical adverse event) [1, 8]: 0 n (%)
Grade 3 or 4 asymptomatic laboratory events [1, 8]: 3 (18%) n (%)
Grade 3 or 4 clinical adverse events [1, 8]: 0 n (%)
Anaemia (grade 3 or 4 asymptomatic laboratory event) [1, 9]: 0 n (%)
Cryptococcal meningitis (grade 3 or 4 clinical adverse event) [1, 9]: 0 n (%)
Grade 3 or 4 asymptomatic laboratory events [1, 9]: 0 n (%)
Grade 3 or 4 clinical adverse events [1, 9]: 0 n (%)
Neutropenia (grade 3 or 4 asymptomatic laboratory event) [1, 9]: 0 n (%)
Thrombocytopenia and raised transaminases (grade 3 or 4 asymptomatic laboratory event) [1, 9]: 0 n (%)
Anaemia (grade 3 or 4 asymptomatic laboratory event) [1, 10]: 0 n (%)
Cryptococcal meningitis (grade 3 or 4 clinical adverse event) [1, 10]: 0 n (%)
Grade 3 or 4 asymptomatic laboratory events [1, 10]: 1 (6%) n (%)
Grade 3 or 4 clinical adverse events [1, 10]: 0 n (%)
Neutropenia (grade 3 or 4 asymptomatic laboratory event) [1, 10]: 1 (6%) n (%)
Thrombocytopenia and raised transaminases (grade 3 or 4 asymptomatic laboratory event) [1, 10]: 0 n (%)
Total adverse events (grade 3 or 4 or serious adverse event) [1, 10]: 1 (6%) n (%)
Reportable adverse events ([1]; 28 children weighing 25 kg or more on 50 mg film-coated tablets, follow-up 24 weeks): three
Anaemia (grade 3 or 4 asymptomatic laboratory event) [1, 11]: 0 n (%)
Cryptococcal meningitis (grade 3 or 4 clinical adverse event) [1, 11]: 0 n (%)
Grade 3 or 4 asymptomatic laboratory events [1, 11]: 0 n (%)
Grade 3 or 4 clinical adverse events [1, 11]: 0 n (%)
Neutropenia (grade 3 or 4 asymptomatic laboratory event) [1, 11]: 0 n (%)
Thrombocytopenia and raised transaminases (grade 3 or 4 asymptomatic laboratory event) [1, 11]: 0 n (%)
Anaemia (grade 3 or 4 asymptomatic laboratory event) [1, 12]: 1 (9%) n (%)
Grade 3 or 4 asymptomatic laboratory events [1, 12]: 1 (9%) n (%)
Grade 3 or 4 clinical adverse events [1, 12]: 1 (9%) n (%)
Neutropenia (grade 3 or 4 asymptomatic laboratory event) [1, 12]: 0 n (%)
Thrombocytopenia and raised transaminases (grade 3 or 4 asymptomatic laboratory event) [1, 12]: 0 n (%)
Total adverse events (grade 3 or 4 or serious adverse event) [1, 12]: 2 (18%) n (%)
Cryptococcal meningitis (grade 3 or 4 clinical adverse event) ([1]; 30 to <40 kg, 11 patients (50 mg) FCT, serious adverse event): 1 (9%) ^** n (%)
Adverse events considered related to dolutegravir ([1]; 47 children on 50 mg film-coated tablet or 30 mg dispersible tablets, reporting clinicians and endpoint review committee): none
Bioequivalence of 30 mg dose as six 5 mg dispersible tablets to 50 mg film-coated tablet [2]: bioequivalent
Increase of C24 with food compared with fasting ([3]; high fat meal): 73%
Increase of C24 with food compared with fasting ([3]; low fat meal): 33%
Increase of C24 with food compared with fasting ([3]; moderate fat meal): 45%
Children with individual Ctrough below 0·32 mg/L (in vivo EC90) ([4]; human, 24 h): 12 (30%) n (%)
AUC0-24h / Dose geometric mean ratio (90% CI), 50 mg FCT vs 25/35 mg FCT ([4]; human, in vivo): 0∙91 (0∙85-0∙97)
Cmax / Dose geometric mean ratio (90% CI), 50 mg FCT vs 25/35 mg FCT ([4]; human, in vivo): 0∙89 (0∙82-0∙96)
GM Cmax higher than in adults on 50 mg twice-daily ([4]; human, in vivo): 32%
GM Cmax higher than in adults on 50 mg twice-daily ([4]; human, in vivo, 50 mg): 17%
Ctrough / Dose geometric mean ratio (90% CI), 50 mg FCT vs 25/35 mg FCT ([4]; human, in vivo, 24 h): 0∙98 (0∙87-1∙10)
Ctrough geometric mean ratio (90% CI), 50 mg FCT vs 30 mg DT ([4]; human, in vivo, 24 h): 0∙99 (0∙57-1∙71)
Equivalence, 50 mg FCT vs 30 mg DT ([4]; in vivo): Suggested
Sustained virological response rate (plasma HIV-1 RNA <50 copies per mL) ([5]; 10 mg film-coated tablet once daily): 79%
Sustained virological response rate (plasma HIV-1 RNA <50 copies per mL) ([5]; 50 mg film-coated tablet once daily): 88%
